# Target: T1, hM2 receptor (CHO-K1 cells) (Homo sapiens, UniProt P08172)
# T1 construct: expressed in transfected cells; host or cells: CHO-K1 cells
# T1 sequence (P08172 1-466): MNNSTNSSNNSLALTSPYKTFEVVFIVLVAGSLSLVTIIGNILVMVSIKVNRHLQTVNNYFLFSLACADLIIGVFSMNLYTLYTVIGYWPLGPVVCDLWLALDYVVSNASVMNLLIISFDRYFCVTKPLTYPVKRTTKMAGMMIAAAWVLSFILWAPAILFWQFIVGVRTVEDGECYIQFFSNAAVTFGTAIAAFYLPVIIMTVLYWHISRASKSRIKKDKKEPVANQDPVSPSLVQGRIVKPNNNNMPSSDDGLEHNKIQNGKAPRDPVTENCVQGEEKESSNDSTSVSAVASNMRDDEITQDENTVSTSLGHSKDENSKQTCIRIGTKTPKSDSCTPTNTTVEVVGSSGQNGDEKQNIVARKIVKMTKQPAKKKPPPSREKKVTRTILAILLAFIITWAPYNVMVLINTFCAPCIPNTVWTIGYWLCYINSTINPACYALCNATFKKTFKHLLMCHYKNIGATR
# Experiment: Blockade of agonist-mediated [35S]GTPγS binding
# Type: biochemical
# Settings: CHO-K1 cells expressing the hM2 receptor; this or a similar assay; read-out: Ki value for blockade of oxotremorine-stimulated [35S]GTPγS binding
# Method: In a second functional assay, the functional potency of test compounds can be determined by measuring the ability of the compounds to block oxotremorine-stimulated [^35S]GTPγS binding in CHO-K1 cells expressing the hM2 receptor.
# At the time of use, frozen membranes were thawed and then diluted in assay buffer with a final target tissue concentration of 5-10 μg protein per well. The membranes were briefly homogenized using a Polytron PT-2100 tissue disrupter and then added to the assay plates. The EC90 value (effective concentration for 90% maximal response) for stimulation of [^35S]GTPγS binding by the agonist oxotremorine was determined in each experiment.
# The assay plates were then incubated at 37° C. for 60 minutes. The assay plates were filtered over 1% BSA-pretreated GF/B filters using a PerkinElmer 96-well harvester. The plates were rinsed with ice-cold wash buffer for 3×3 seconds and then air or vacuum dried. Microscint-20 scintillation liquid (50 μL) was added to each well, and each plate was sealed and radioactivity counted on a topcounter (PerkinElmer). Data were analyzed by nonlinear regression analysis with the GraphPad Prism Software package (GraphPad Software, Inc., San Diego, Calif.) using the non-linear regression, one-site competition equation. […]
structure (smiles),measurement,value
"O=C(CCN1CCC(OC(=O)Nc2ccccc2-c2ccccc2)CC1)NCCCCCNCc1ccc(O)cc1 [compound of formula I, biphenyl-2-ylcarbamic acid 1-{2-[5-(4-hydroxybenzylamino)pentylcarbamoyl]ethyl}piperidin-4-yl ester]",Ki,< 10 nM

# From patent US20060205949A1, “Crystalline forms of a biphenyl compound” (THERAVANCE, INC., priority 2005, published 2006)
